Entries after “also recorded” stand apart in the source; their conditions may differ. Like-named read-outs stand apart in the source and are kept apart here.
Assays:
[1] = tested on: triple-negative MDA-MB-231 breast cancer cells; test: Growth inhibition of MDA-MB-231 cells; type: cell-based; settings: for IC50: Homo sapiens; for IC50 / Growth Inhibition IC50: dose-response 0.32-320 μM; for growth inhibition potency compared with olaparib: MDA-MB-231, throughout testing (24 h and 72 h)
Description: (§1) Olaparib was chosen because it is one of a few FDA-approved chemotherapeutics for triple-negative breast cancer.
(§2) Cells were incubated for 15 minutes at 37° C.

[2] = tested on: triple-negative MDA-MB-231 breast cancer cells; test: cells; settings: Homo sapiens
[3] = tested on: SK-BR-3 (ER−/PR−/HER2+) breast cancer cells; test: Growth inhibition of SK-BR-3 cells; type: cell-based; settings: Homo sapiens, dose-response 0.32-320 μM
Description: as §1, §2

[4] = tested on: MCF-7 (ER+/PR+/HER2−) breast cancer cells; test: Growth inhibition of MCF-7 cells (Hoechst 33342 fluorescence vs non-treated wells); type: cell-based; settings: dose-response 0.32-320 μM
Description: as §1, §2

[5] = Cytotoxicity (cell death, propidium iodide) in MCF-10A cells; type: cell-based; settings: human, MCF-10A non-cancerous breast cells
Description: (§3) To assess the selectivity of cytotoxicity for cancer cells, all drugs and compounds were screened against MCF-10A, non-cancerous breast cells.
as §2

[6] = tested on: MCF-7 breast cancer cells; test: Cytotoxicity (cell death, propidium iodide) in MCF-7 cells; type: cell-based; settings: for EC50: Homo sapiens, MCF7
[7] = tested on: MCF-10A non-cancerous breast cells; test: Growth inhibition of MCF-10A cells (negative control line); type: cell-based; settings: Homo sapiens, dose-response 0.32-320 μM
Description: as §1, §2

[8] = tested on: SK-BR-3 breast cancer cells; test: Cytotoxicity (cell death, propidium iodide) in SK-BR-3 cells; type: cell-based; settings: for EC50: Homo sapiens, dose-response 0.32-320 μM
[9] = tested on: MCF-10A non-cancerous breast cells; test: Cytotoxicity (cell death, propidium iodide) in MCF-10A cells; type: cell-based
Description: as §3, §2

newborn rat spinal cord = settings: cited from earlier work
[10] = tested on: central nervous system (CNS); settings: cited from earlier work
[11] = MDA-MB-231, 24 h, read-out: Cytotoxicity EC50
[12] = MDA-MB-231, 72 h, read-out: Cytotoxicity EC50
[13] = MDA-MB-231, read-out: cytotoxic EC50
[14] = Homo sapiens, MCF7, 24 h, MCF-7, 24 h exposure
[15] = MCF-7, 24 h exposure, dose-response 0.32-320 μM, read-out: Cytotoxicity EC50
[16] = MCF-7, 72 h exposure, dose-response 0.32-320 μM, read-out: Cytotoxicity EC50
[17] = Homo sapiens, MCF7, 72 h, MCF-7, 72 h exposure
[18] = SK-BR-3, 72 h / after the first 24 h

Row | SMILES | IC50 ([1]; MDA-MB-231, 24 h exposure) | IC50 ([1]; MDA-MB-231, 72 h exposure) | EC50 [2, 11] | EC50 [2, 12] | IC50 ([3]; SK-BR-3, 24 h exposure) | IC50 ([3]; SK-BR-3, 72 h exposure) | IC50 [4, 14] | EC50 at 24 h ([5]; 24 h exposure) | EC50 at 24 h ([5]; head prints 24 h) | EC50 [6, 15] | EC50 [6, 16] | EC50 for MCF-7 cytotoxicity ([6]; MCF-7, 72 h exposure) | IC50 ([7]; 24 h exposure) | IC50 ([7]; 72 h exposure) | EC50 ([8]; SK-BR-3, 24 h exposure) | EC50 ([8]; SK-BR-3, 72 h exposure) | Growth Inhibition IC50 ([1]; MDA-MB-231, 72 h exposure) | IC50 [4, 17] | cytotoxicity EC50 [8, 18] | Growth Inhibition IC50 ([1]; MDA-MB-231, 24 h exposure) | further results
1 | O=C(c1cc(Cc2n[nH]c(=O)c3ccccc23)ccc1F)N1CCN(C(=O)C2CC2)CC1 [Olaparib, reference compound] | 161 µM | 154 µM | 61.2 µM | 97.1 µM | 1.6 µM | 1.1 µM | > 1000 µM | 511 µM | > 1000 µM | > 1000 µM | 26.5 µM | micromolar EC50 | > 1000 µM | > 1000 µM | > 1000 µM | 0.1 µM | – | – | – | – | EC50 [2, 13]: ≤ 100 µM; IC50 ([4]; MCF-7, 72 h exposure): 108 µM; EC50 at 24 h ([5]; within the first 24 h): 268 to 511 µM; EC50 for cytotoxicity ([6]; MCF-7, 24 h exposure): neither tamoxifen nor olaparib were cytotoxic; cytotoxicity ([8]; SK-BR-3, 24 h exposure): neither tamoxifen nor olaparib were cytotoxic
2 | C=C(C[C@H](N)C(=O)O)C(=O)NCc1ccccc1 [Compound 4, (S)-2-amino-4-(benzylcarbamoyl) pent-4-enoic acid] | 481 µM | 649 µM | 374 µM | 980 µM | 74.2 µM | 0.6 µM | > 1000 µM | > 1000 µM | 563 µM | 664 µM | 218 µM | – | > 1000 µM | > 1000 µM | 0.1 µM | > 1000 µM | poorer potency than olaparib | 197 µM | much reduced toxicity | – | cytotoxicity EC50 ([9]; after the first 24 h): EC50 in the micromolar range
3 | C=C(C[C@H](N)C(=O)O)C(=O)N1CCCCC1 [Compound 8, (S)-2-amino-4-(piperidine-1-carbonyl) pent-4-enoic acid] | 685 µM | 813 µM | > 1000 µM | > 1000 µM | 133 µM | 0.6 µM | 434 µM | > 1000 µM | > 1000 µM | 197 µM | 198 µM | did not change | > 1000 µM | > 1000 µM | 0.1 µM | > 1000 µM | poorer potency than olaparib | 606 µM | much reduced toxicity | poorer potency than both tamoxifen or olaparib | Growth Inhibition IC50 ([4]; MCF-7, 72 h exposure): significantly less potent than tamoxifen
4 | C=C(C[C@H](N)C(=O)O)C(N)=O [Compound 1, (S)-2-amino-4-carbamoylpent-4-enoic acid] | 141 µM | 585 µM | 8.9 µM | 320 µM | 7.9 µM | 11.3 µM | 459 µM | > 1000 µM | > 1000 µM | 152 µM | 3 µM | significantly lower than tamoxifen | > 1000 µM | > 1000 µM | 0.2 µM | 2 µM | longer-term performance commensurate to olaparib; also recorded: as efficacious as olaparib | 609 µM | – | potency that was commensurate to tamoxifen | cytotoxicity EC50 ([8]; SK-BR-3, at 24 or 72 h): commensurate EC50's at 24 or 72 h
5 | C=C(C[C@H](N)C(=O)O)C(=O)NC1CC1 [Compound 7, (S)-2-amino-4-(cyclopropylcarbamoyl) pent-4-enoic acid] | 649 µM | 922 µM | 933 µM | > 1000 µM | 314 µM | 0.6 µM | 231 µM | > 1000 µM | > 1000 µM | 64.1 µM | 508 µM | – | > 1000 µM | > 1000 µM | 272 µM | > 1000 µM | poorer potency than olaparib | 416 µM | much reduced toxicity | – | Growth Inhibition IC50 ([4]; MCF-7, 72 h exposure): significantly less potent than tamoxifen; EC50 ([6]; MCF-7, 24 h exposure, read-out: EC50 for cytotoxicity): 64 µM
6 | C=C(C[C@H](N)C(=O)O)C(=O)Nc1ccc(Cl)cc1 [Compound 10, (S)-2-amino-4-((4-chlorophenyl)carbamoyl) pent-4-enoic acid] | 867 µM | 712 µM | > 1000 µM | > 1000 µM | 78.7 µM | 4 µM | 397 µM | > 1000 µM | > 1000 µM | 205 µM | 93.2 µM | – | > 1000 µM | > 1000 µM | 262 µM | > 1000 µM | poorer potency than olaparib | 171 µM | much reduced toxicity | poorer potency than both tamoxifen or olaparib | –
7 | CC/C(=C(\c1ccccc1)c1ccc(OCCN(C)C)cc1)c1ccccc1 [Tamoxifen, reference compound] | – | – | 26 µM | 30.9 µM | – | – | – | 268 µM | > 1000 µM | > 1000 µM | – | micromolar EC50 | – | – | > 1000 µM | 0.3 µM | – | – | – | – | EC50 [2, 13]: ≤ 100 µM; EC50 at 24 h ([5]; within the first 24 h): 268 to 511 µM; EC50 for cytotoxicity ([6]; MCF-7, 24 h exposure): neither tamoxifen nor olaparib were cytotoxic; cytotoxicity ([8]; SK-BR-3, 24 h exposure): neither tamoxifen nor olaparib were cytotoxic
8 | C=C(C[C@H](N)C(=O)O)C(=O)O [Compound 2, L-γ-methyleneglutamic acid] | – | – | – | – | – | – | – | – | – | – | – | – | – | – | – | – | – | – | – | – | potency relative to L-glutamate as a depolarizing agent (newborn rat spinal cord): 10 times; central nervous system (CNS) inhibitory activity [10]: strong
9 | C=C(C[C@H](N)C(=O)O)C(=O)NCc1ccc([N+](=O)[O-])cc1 [Compound 6, (S)-2-amino-4-((4-nitrobenzyl)carbamoyl) pent-4-enoic acid] | 216 µM | 368 µM | 150 µM | 270 µM | 12.8 µM | 3.2 µM | 457 µM | > 1000 µM | > 1000 µM | 485 µM | 20.4 µM | – | > 1000 µM | > 1000 µM | 0.3 µM | 0.4 µM | longer-term performance commensurate to olaparib; also recorded: as efficacious as olaparib | 534 µM | – | potency that was commensurate to tamoxifen | cytotoxicity EC50 ([8]; SK-BR-3, at 24 or 72 h): commensurate EC50's at 24 or 72 h
10 | C=C(C[C@H](N)C(=O)O)C(=O)Nc1ccc(F)cc1 [Compound 9, (S)-2-amino-4-((4-fluorophenyl)carbamoyl) pent-4-enoic acid] | 652 µM | 419 µM | > 1000 µM | 450 µM | 11.4 µM | 4.7 µM | 414 µM | > 1000 µM | > 1000 µM | 161 µM | 2.3 µM | significantly lower than tamoxifen | > 1000 µM | > 1000 µM | 0.2 µM | 0.1 µM | – | 76 µM | – | – | growth inhibition potency compared with olaparib [1]: equipotent to olaparib; cytotoxicity EC50 ([8]; SK-BR-3, at 24 or 72 h): commensurate EC50's at 24 or 72 h
11 | C=C(C[C@H](N)C(=O)O)C(=O)NCc1ccc(F)cc1 [Compound 5, (S)-2-amino-4-((4-fluorobenzyl)carbamoyl)pent-4-enoic acid] | 350 µM | 339 µM | 265 µM | 262 µM | 3.9 µM | 4.5 µM | 590 µM | 796 µM | > 1000 µM | > 1000 µM | 54.5 µM | – | > 1000 µM | > 1000 µM | > 1000 µM | 0.4 µM | – | 85.3 µM | cell death was apparent | – | growth inhibition potency compared with olaparib [1]: equipotent to olaparib; cytotoxicity EC50 ([9]; within the first 24 h): EC50 below the millimolar range; cytotoxicity ([8]; SK-BR-3, 24 h exposure): devoid of toxicity
